Experimental data reported in patent US9145391B2, “Bipyridylaminopyridines as Syk inhibitors” (Merck Sharp & Dohme Corp., priority 2011, dated 2015).

Biological target: recombinant human GST-Syk (Homo sapiens (Human), UniProt P43405)
Test: Homogeneous Time-Resolved Fluorescence (HTRF) assay for the recombinant human Syk enzyme
Type: biochemical
Conditions: recombinant human GST-Syk 5 pM, ATP 25 μM, read-out: rhSyk IC50
Protocol: Syk inhibition may be determined using the following assay protocol: Homogeneous Time-Resolved Fluorescence (HTRF) Assay for the Recombinant Human Syk Enzyme: A recombinant GST-hSyk fusion protein was used to measure potency of compounds to inhibit human Syk activity. […] To initiate the reaction the biotinylated substrate peptide (250 nM final concentration) that contains the phosphorylation site for Syk was added with magnesium (5 mM final concentration) and ATP (25 μM final concentration). […] Final volume of the quenching solution was 10 μL.

| Compound | IC50 [nM] |
| --- | --- |
| CCCCCCOC(=O)[C@H]1CC[C@H](C(C)(O)c2ccc(-c3cc(C)cc(Nc4cc(C(F)F)ccn4)n3)cn2)CC1 (single isomer, unassigned) [Example 19-9, hexyl trans-4-[(1R or 1S)-1-(6-{[4-(difluoromethyl)pyridin-2-yl]amino}-4-methyl-2,3′-bipyridin-6′-yl)-1-hydroxyethyl] cyclohexanecarboxylate] | 190 |
| CCCCCCCCOC(=O)[C@H]1CC[C@H](C(C)(O)c2ccc(-c3cc(C)cc(Nc4cc(C(F)F)ccn4)n3)cn2)CC1 (single isomer, unassigned) [Example 19-11, octyl trans-4-[(1R or 1S)-1-(6-{[4-(difluoromethyl)pyridin-2-yl]amino}-4-methyl-2,3′-bipyridin-6′-yl)-1-hydroxyethyl] cyclohexanecarboxylate] | > 10000 |
| Cc1cc(Nc2cc(C(F)F)ccn2)nc(-c2ccc(C(C)(O)[C@H]3CC[C@H](C(=O)OC4CCCCC4)CC3)nc2)c1 (single isomer, unassigned) [Example 19-12, cyclohexyl trans-4-[(1R or 1S)-1-(6-{[4-(difluoromethyl)pyridin-2-yl]amino}-4-methyl-2,3′-bipyridin-6′-yl)-1-hydroxyethyl] cyclohexanecarboxylate] | 47 |
| Cc1cc(Nc2cc(C(F)F)ccn2)nc(-c2ccc(C(C)(O)[C@H]3CC[C@H](C(=O)OC4CCOCC4)CC3)nc2)c1 (single isomer, unassigned) [Example 19-13, tetrahydro-2H-pyran-4-yl trans-4-[(1R or 1S)-1-(6-{[4-(difluoromethyl)pyridin-2-yl]amino}-4-methyl-2,3′-bipyridin-6′-yl)-1-hydroxyethyl] cyclohexanecarboxylate] | 8.7 |
| Cc1cc(Nc2cc(C(F)F)ccn2)nc(-c2ccc(C(C)(O)[C@H]3CC[C@H](C(=O)OCC4CCCCC4)CC3)nc2)c1 (single isomer, unassigned) [Example 19-14, cyclohexylmethyl trans-4-[(1R or 1S)-1-(6-{[4-(difluoromethyl)pyridin-2-yl]amino}-4-methyl-2,3′-bipyridin-6′-yl)-1-hydroxyethyl] cyclohexanecarboxylate] | 210 |
| CCOCCOCCOC(=O)[C@H]1CC[C@H](C(C)(O)c2ccc(-c3cc(C)cc(Nc4cc(C(F)F)ccn4)n3)cn2)CC1 (single isomer, unassigned) [Example 19-16, 2-(2-ethoxyethoxy)ethyl trans-4-[(1R or 1S)-1-(6-{[4-(difluoromethyl)pyridin-2-yl]amino}-4-methyl-2,3′-bipyridin-6′-yl)-1-hydroxyethyl] cyclohexanecarboxylate] | 12 |
| COC(=O)COC(=O)[C@H]1CC[C@H](C(C)(O)c2ccc(-c3cc(C)cc(Nc4cc(C(F)F)ccn4)n3)cn2)CC1 (single isomer, unassigned) [Example 19-17, 2-methoxy-2-oxoethyl trans-4-[(1R or 1S)-1-(6-{[4-(difluoromethyl)pyridin-2-yl]amino}-4-methyl-2,3′-bipyridin-6′-yl)-1-hydroxyethyl] cyclohexanecarboxylate] | 4.3 |
| Cc1cc(Nc2cc(C(F)F)ccn2)nc(-c2ccc(C(C)(O)[C@H]3CC[C@H](C(=O)OCCN(C)C)CC3)nc2)c1 (single isomer, unassigned) [Example 19-20, 2-(dimethylamino)ethyl trans-4-[(1R or 1S)-1-(6-{[4-difluoromethyl)pyridin-2-yl]amino}-4-methyl-2,3′-bipyridin-6′-yl)-1-hydroxyethyl] cyclohexanecarboxylate] | 2.3 |
| Cc1cc(Nc2cc(C(F)F)ccn2)nc(-c2ccc(C(C)(O)[C@H]3CC[C@H](C(=O)OCc4oc(=O)oc4C)CC3)nc2)c1 (single isomer, unassigned) [Example 19-21, (5-methyl-2-oxo-1,3-dioxol-4-yl)methyl trans-4-[(1R or 1S)-1-(6-{[4-(difluoromethyl)pyridin-2-yl]amino}-4-methyl-2,3′-bipyridin-6′-yl)-1-hydroxyethyl] cyclohexanecarboxylate] | 5.2 |

More lines, now with the values ahead:

| IC50 [nM] | Compound |
| --- | --- |
| 19 | Cc1cc(Nc2cc(C(F)F)ccn2)nc(-c2ccc(C(C)(O)[C@H]3CC[C@H](C(=O)OCOC(=O)OC(C)C)CC3)nc2)c1 (single isomer, unassigned) [Example 20-1, {[(propan-2-yloxy)carbonyl]oxy}methyl trans-4-[(1R or 1S)-1-(6-{[4-(difluoromethyl)pyridin-2-yl]amino}-4-methyl-2,3′-bipyridin-6′-yl)-1-hydroxyethyl] cyclohexanecarboxylate] |
| 69 | CCOC(=O)OC(C)OC(=O)[C@H]1CC[C@H](C(C)(O)c2ccc(-c3cc(C)cc(Nc4cc(C(F)F)ccn4)n3)cn2)CC1 (single isomer, unassigned) [Example 20-2, 1-[(ethoxycarbonyl)oxy]ethyl trans-4-[(1R or 1S)-1-(6-{[4-(difluoromethyl)pyridin-2-yl]amino}-4-methyl-2,3′-bipyridin-6′-yl)-1-hydroxyethyl] cyclohexanecarboxylate] |
| 110 | Cc1cc(Nc2cc(C(F)F)ccn2)nc(-c2ccc(C(C)(O)[C@H]3CC[C@H](C(=O)OC(C)OC(=O)OC(C)C)CC3)nc2)c1 (single isomer, unassigned) [Example 20-3, 1-{[(propan-2-yloxy)carbonyl]oxy}ethyl trans-4-[(1R or 1S)-1-(6-{[4-(difluoromethyl)pyridin-2-yl]amino}-4-methyl-2,3′-bipyridin-6′-yl)-1-hydroxyethyl] cyclohexanecarboxylate] |
| 510 | Cc1cc(Nc2cc(C(F)F)ccn2)nc(-c2ccc(C(C)(O)[C@H]3CC[C@H](C(=O)OC(C)OC(=O)OC4CCCCC4)CC3)nc2)c1 (single isomer, unassigned) [Example 20-4, 1-{[(cyclohexyloxy)carbonyl]oxy}ethyl trans-4-[(1R or 1S)-1-(6-{[4-(difluoromethyl)pyridin-2-yl]amino}-4-methyl-2,3′-bipyridin-6′-yl)-1-hydroxyethyl] cyclohexanecarboxylate] |
| 32 | CCOC(=O)OC(C)OC(=O)[C@H]1CC[C@H](C(C)(O)c2ccc(-c3cc(C)cc(Nc4cc(C(F)F)ccn4)n3)cn2)CC1 (single isomer, unassigned) [Example 20-5, 1-[(ethoxycarbonyl)oxy] ethyl trans-4-[(1R or 1S)-1-(6-{[4-(difluoromethyl)pyridin-2-yl]amino}-4-methyl-2,3′-bipyridin-6′-yl)-1-hydroxyethyl] cyclohexanecarboxylate] |
| 21 | CCOC(=O)OC(C)OC(=O)[C@H]1CC[C@H](C(C)(O)c2ccc(-c3cc(C)cc(Nc4cc(C(F)F)ccn4)n3)cn2)CC1 (single isomer, unassigned) [Example 20-6, 1-[(ethoxycarbonyl)oxy]ethyl trans-4-[(1R or 1S)-1-(6-{[4-(difluoromethyl)pyridin-2-yl]amino}-4-methyl-2,3′-bipyridin-6′-yl)-1-hydroxyethyl] cyclohexanecarboxylate] |
| 100 | Cc1cc(Nc2cc(C(F)F)ccn2)nc(-c2ccc(C(C)(O)[C@H]3CC[C@H](C(=O)OC(C)OC(=O)OC(C)C)CC3)nc2)c1 (single isomer, unassigned) [Example 20-7, 1-{[(propan-2-yloxy)carbonyl]oxy}ethyl trans-4-[(1R or 1S)-1-{6-{[4-(difluoromethyl)pyridin-2-yl]amino}-4-methyl-2,3′-bipyridin-6′-yl)-1-hydroxyethyl] cyclohexanecarboxylate] |
| 50 | Cc1cc(Nc2cc(C(F)F)ccn2)nc(-c2ccc(C(C)(O)[C@H]3CC[C@H](C(=O)OC(C)OC(=O)OC(C)C)CC3)nc2)c1 (single isomer, unassigned) [Example 20-8, 1-{[(propan-2-yloxy)carbonyl]oxy}ethyl trans-4-[(1R or 1S)-1-(6-{[4-(difluoromethyl)pyridin-2-yl]amino}-4-methyl-2,3′-bipyridin-6′-yl)-1-hydroxyethyl] cyclohexanecarboxylate] |
| 140 | Cc1cc(Nc2cc(C(F)F)ccn2)nc(-c2ccc(C(C)(O)[C@H]3CC[C@H](C(=O)OC(C)OC(=O)OC4CCCCC4)CC3)nc2)c1 (single isomer, unassigned) [Example 20-9, 1-{[(cyclohexyloxy)carbonyl]oxy}ethyl trans-4-[(1R or 1S)-1-(6-{[4-(difluoromethyl)pyridin-2-yl]amino}-4-methyl-2,3′-bipyridin-6′-yl)-1-hydroxyethyl] cyclohexanecarboxylate] |
| 190 | Cc1cc(Nc2cc(C(F)F)ccn2)nc(-c2ccc(C(C)(O)[C@H]3CC[C@H](C(=O)OC(C)OC(=O)OC4CCCCC4)CC3)nc2)c1 (single isomer, unassigned) [Example 20-10, 1-{[(cyclohexyloxy)carbonyl]oxy}ethyl trans-4-[(1R or 1S)-1-(6-{[4-(difluoromethyl)pyridin-2-yl]amino}-4-methyl-2,3′-bipyridin-6′-yl)-1-hydroxyethyl] cyclohexanecarboxylate] |
| 4.3 | CC(=O)OC(C)OC(=O)[C@H]1CC[C@H](C(C)(O)c2ccc(-c3cc(C)cc(Nc4cc(C(F)F)ccn4)n3)cn2)CC1 (single isomer, unassigned) [Example 21-2, 1-(acetyloxy)ethyl trans-4-[(1R or 1S)-1-(6-{[4-(difluoromethyl)pyridin-2-yl]amino}-4-methyl-2,3′-bipyridin-6′-yl)-1-hydroxyethyl] cyclohexanecarboxylate] |
| 1.5 | CC(=O)OC(C)OC(=O)[C@H]1CC[C@H](C(C)(O)c2ccc(-c3cc(C)cc(Nc4cc(C(F)F)ccn4)n3)cn2)CC1 (single isomer, unassigned) [Example 21-3, 1-(acetyloxy)ethyl trans-4-[(1R or 1S)-1-(6-{[4-(difluoromethyl)pyridin-2-yl]amino}-4-methyl-2,3′-bipyridin-6′-yl)-1-hydroxyethyl] cyclohexanecarboxylate] |
